# Experimental data from patent publication US20220213055A1, “SUBSTITUTED (PIPERIDIN-1-YL)ARYL ANALOGUES FOR MODULATING AVIL ACTIVITY” (University of Virginia Patent Foundation, priority 2019, published 2022).
# Read-outs that look alike come from different tables or passages of the source.
# Assays:
# [1] = tested on: Glioblastoma cell line U87 cells; assay: MTT cell viability assay, glioblastoma cells; format: cell-based; settings: U87 glioblastoma cells, MTT after three days
# Experimental: (§1) Different concentration of compounds were added to the cells. Three days later, a MTT assay (Sigma) was performed to monitor cell viability.
# (§2) In this example, samples of glioblastoma cells (U87) and astrocyte cells (non-cancer control) were exposed various disclosed compounds to determine the effectiveness of the compounds for inhibiting cell growth.
# [2] = tested on: Immortalized human astrocytes; assay: MTT cell viability assay, astrocytes (non-cancer control); format: cell-based; settings: immortalized human astrocytes, MTT after three days
# Experimental: as §1, §2
"IC50 ([1]; Homo sapiens, U-87 MG, 72 h) [µM]",IC50 [1] [µM],SMILES,"IC50 ([2]; Homo sapiens, Astrocyte, 72 h) [µM]",IC50 ([2]; read-out: IC50 (astrocyte)) [µM]
14,–,"OCC1(CCCc2ccccc2)CCCN(c2ccccn2)C1 (stereo not shown) [PLH1291, (3-(3-Phenylpropyl)-1-(pyridin-2-VI)piperidin-3-VI)methanol]",> 80,–
~11.7,–,"Nc1nccc(N2CCCC(CO)(CCCc3ccccc3)C2)n1 (stereo not shown) [PLH1215, (1-(2-Aminopyrimidin-4-yl)-3-(3-phenylpropyl)piperidin-3-yl)methanol]",> 80,–
> 80,–,"Nc1ncnc(N2CCCC(CO)(CCCc3ccccc3)C2)n1 (stereo not shown) [PLH1239, (1-(4-Amino-1,3,5-triazin-2-yl)-3-(3-phenylpropyl)piperidin-3-yl)methanol]",–,–
13.6,–,"Nc1ccnc(N2CCC(CO)(CCCc3ccccc3)CC2)n1 [JDDUVA69, (1-(4-Aminopyrimidin-2-yl)-4-(3-phenylpropyl)piperidin-4-yl)methanol]",> 80,–
19,–,"Cc1nc(N(C)C)nc(N2CCCC(CO)(CCCc3ccccc3)C2)c1C (stereo not shown) [PLH1276, (1-(2-(Dimethylamino)-5,6-dimethylpyrimidin-4-yl)-3-(3-phenylpropyl)piperidin-3-yl)methanol]",> 80,–
~30,–,"OCC1(CCCc2ccccc2)CCCN(c2ccncn2)C1 (stereo not shown) [PLH2062, (3-(3-Phenylpropyl)-1-(pyrimidin-4-VI)piperidin-3-yl)methanol]",> 80,–
~2.5,2.3,"COc1c(Cl)ncnc1N1CCCC(CO)(CCCc2ccccc2)C1 (stereo not shown) [PLH1302, (1-(6-Chloro-5-methoxypyrimidin-4-yl)-3-(3-phenylpropyl)piperidin-3-yl)methanol]",~20,10
~15,–,CCOC(=O)C1(CCCc2ccccc2)CCCN(C(=O)OC(C)(C)C)C1 (stereo not shown) [PLH1225],> 80,–
> 80,–,"Nc1nccc(N2CCCCC2CO)n1 (stereo not shown) [JDDUVA61, (1-(2-Aminopyrimidin-4-yl)piperidin-2-yl)methanol]",> 80,–
~50,–,CS(=O)(=O)OCC1(CCCc2ccccc2)CCCN(c2ccnc(N)n2)C1 (stereo not shown) [PLH1224],> 80,–
–,–,"Cc1nc(N)nc(N2CCC(CO)(CCCc3ccccc3)CC2)c1C [JDDUVA43, (1-(2-Amino-5,6-dimethylpyrimidin-4-yl)-4-(3-phenylpropyl)piperidin-4-yl)methanol]",47,60
14.1,–,"Cc1c(O)ncnc1N1CCC(CO)(CCCc2ccccc2)CC1 [JDDUVA48, 6-(4-(Hydroxymethyl)-4-(3-phenylpropyl)piperidin-1-yl)-5-methylpyrimidin-4-ol]",7.32,–
16,–,"Nc1nccc(N2CCC(c3ccccc3)CC2)n1 [JDDUVA63, 4-(4-Phenylpiperidin-1-yl)pyrimidin-2-amine]",> 80,–
–,~11,Nc1nccc(N2CCCC(CO)(CCCc3ccccc3)C2)n1 (stereo not shown) [JDDUVA38],–,56
3,–,"Nc1nccc(N2CCC(CO)(CCCc3ccccc3)CC2)n1 [JDDUVA49, (1-(2-Aminopyrimidin-4-yl)-4-(3-phenylpropyl)piperidin-4-yl)methanol]",> 80,–
> 80,–,"Nc1nccc(N2CCc3ccccc3C2)n1 [JDDUVA71, 4-(3,4-Dihydroisoquinolin-2(1H)-yl)pyrimidin-2-amine]",> 80,–
> 80,–,COC(=O)C1CCCNC1 (stereo not shown) [PLH1155],> 80,–
~80,–,"Cc1c(-c2ccccc2)ncnc1N1CCCC(CO)(CCCc2ccccc2)C1 (stereo not shown) [PLH2063, (1-(5-methyl-6-phenylpyrimidin-4-yl)-3-(3-phenylpropyl)piperidin-3-yl)methanol]",~80,–
30,–,"Cc1nccnc1N1CCC(CO)(CCCc2ccccc2)CC1 [JDDUVA53, (1-(3-Methylpyrazin-2-yl)-4-(3-phenylpropyl)piperidin-4-yl)methanol]",> 80,–
1.5,–,"CCc1ncnc(N2CCCC(CO)(CCCc3ccccc3)C2)c1F (stereo not shown) [PLH2002, (1-(6-Ethyl-5-fluoropyrimidin-4-yl)-3-(3-phenylpropyl)piperidin-3-yl)methanol]",1.1,–
~80,–,O=C(O)C1(CCCc2ccccc2)CCCNC1 (stereo not shown) [PLH1197],> 80,–
13,–,"OCC1(CCCc2ccccc2)CCN(c2cc(C(F)(F)F)ncn2)CC1 [JDDUVA47, (4-(3-Phenylpropyl)-1-(6-(trifluoromethyl)pyrimidin-4-yl)piperidin-4-yl)methanol]",> 80,–
12,–,"Nc1ncnc(N2CCC(CO)(CCCc3ccccc3)CC2)c1N [JDDUVA51, (1-(5,6-Diaminopyrimidin-4-yl)-4-(3-phenylpropyl)piperidin-4-yl)methanol]",> 80,–
3.6,–,"CCc1ncnc(N2CCC(CO)(CCCc3ccccc3)CC2)c1F [JDDUVA68, (1-(6-Ethyl-5-fluoropyrimidin-4-yl)-4-(3-phenylpropyl)piperidin-4-yl)methanol]",12.5,–
> 80,–,CC(C)(C)OC(=O)N1CCCC(C(=O)NCc2ccccc2)C1 (stereo not shown) [PLH1273],> 80,–
–,~12.2,Nc1nccc(N2CCCC(CO)(CCCc3ccccc3)C2)n1 (stereo not shown) [JDDUVA28],–,> 80

"IC50 ([1]; Homo sapiens, U-87 MG, 72 h) [µM]",IC50 [1] [µM],SMILES,"IC50 ([2]; Homo sapiens, Astrocyte, 72 h) [µM]",IC50 ([2]; read-out: IC50 (astrocyte)) [µM]
> 80,–,"Nc1nccc(N2CCCC(CO)C2)n1 (stereo not shown) [JDDUVA18, (1-(2-Aminopyrimidin-4-yl)piperidin-3-yl)methanol]",–,–
~30,–,CCOC(=O)C1(CCCc2ccccc2)CCN(C(=O)OC(C)(C)C)CC1 [JDDUVA76],~60,–
8,–,O=Cc1c(Cl)ncnc1N1CCCC(CO)(CCCc2ccccc2)C1 (stereo not shown) [PLH1293],18,–
> 80,–,COC(=O)C1CCCN(C(=O)OC(C)(C)C)C1 (stereo not shown) [PLH1190],> 80,–
41,–,"COc1nc(OC)nc(N2CCC(CO)(CCCc3ccccc3)CC2)n1 [JDDUVA52, (1-(4,6-Dimethoxy-1,3,5-triazin-2-yl)-4-(3-phenylpropyl)piperidin-4-yl)methanol]",> 80,–
4.3,–,"Nc1nccc(N2CCC[C@H](COCc3ccccc3)C2)n1 [PLH2032, (S)-4-(3-((Benzyloxy)methyl)piperidin-1-yl)pyrimidin-2-amine]",~40,–
~22.5,–,COC(=O)C1(CCCc2ccccc2)CCCN(C(=O)OC(C)(C)C)C1 (stereo not shown) [PLH1195],65,–
–,–,"OCC1(CCCc2ccccc2)CCN(c2cc(Cl)ncn2)CC1 [JDDUVA60, (1-(6-Chloropyrimidin-4-yl)-4-(3-phenylpropyl)piperidin-4-yl)methanol]",> 80,–
–,6,"COC(=O)C1(CCCc2ccccc2)CCCN(c2ccnc(N)n2)C1 (stereo not shown) [PLH1209, Methyl 1-(2-aminopyrimidin-4-yl)-3-(3-phenylpropyl)piperidine-3-carboxylate]",–,76
~4,–,"Cc1ncnc(N2CCC(CO)(CCCc3ccccc3)CC2)c1C [JDDUVA96, (1-(5,6-Dimethylpyrimidin-4-yl)-4-(3-phenylpropyl)piperidin-4-yl)methanol]",~8,–
3.6,–,"Nc1nc(N)nc(N2CCCC(CO)(CCCc3ccccc3)C2)n1 (stereo not shown) [PLH1258, (1-(4,6-Diamino-1,3,5-triazin-2-yl)-3-(3-phenylpropyl)piperidin-3-yl)methanol]",> 80,–
~30,–,CC(C)(C)OC(=O)N1CCCC(CO)(CCCc2ccccc2)C1 (stereo not shown) [PLH1196],> 80,–
~2,–,"OCC1(CCCc2ccccc2)CCCN(c2ncnc3cc(Cl)ccc23)C1 (stereo not shown) [PLH2074, (1-(7-Chloroquinazolin-4-yl)-3-(3-phenylpropyl)piperidin-3-yl)methanol]",~15,–
> 80,–,OCC1(CCCc2ccccc2)CCCNC1 (stereo not shown) [PLH1211],> 80,–
~10.9,–,COC(=O)C1(CCCc2ccccc2)CCCN(c2ccnc(N)n2)C1 (stereo not shown) [JDDUVA20],70,–
> 80,–,COC(=O)C1CCCN(c2ccnc(N)n2)C1 (stereo not shown) [JDDUVA16],–,–
> 80,–,"Nc1ccnc(N2CCCC(CO)(CCCc3ccccc3)C2)n1 (stereo not shown) [PLH2006, (1-(4-Aminopyrimidin-2-yl)-3-(3-phenylpropyl)piperidin-3-yl)methanol]",> 80,–
17,–,"Nc1nccc(N2CCCC(C(=O)NCCc3ccccc3)C2)n1 (stereo not shown) [PLH1285, 1-(2-Aminopyrimidin-4-yl)-N-phenethylpiperidine-3-carboxamide]",> 80,–
> 80,–,Clc1cc(N2CCc3ccccc3C2)ncn1 [JDDUVA81],> 80,–
~1.7,~3.4,"Nc1nccc(N2CCCC(CCCc3ccccc3)(COCc3ccccc3)C2)n1 (stereo not shown) [PLH1253, 4-(3-((Benzyloxy)methyl)-3-(3-phenylpropyl)piperidin-1-yl)pyrimidin-2-amine]",–,–
20,–,"Cc1nccnc1N1CCCC(CO)(CCCc2ccccc2)C1 (stereo not shown) [PLH1234, (1-(3-Methylpyrazin-2-yl)-3-(3-phenylpropyl)piperidin-3-yl)methanol]",51.8,–
~2.5,–,"COc1c(Cl)ncnc1N1CCC(CO)(CCCc2ccccc2)CC1 [JDDUVA67, (1-(6-Chloro-5-methoxypyrimidin-4-yl)-4-(3-phenylpropyl)piperidin-4-yl)methanol]",~6,–
63.6,–,"COc1nc(OC)nc(N2CCCC(CO)(CCCc3ccccc3)C2)n1 (stereo not shown) [PLH1230, (1-(4,6-Dimethoxy-1,3,5-triazin-2-yl)-3-(3-phenylpropyl)piperidin-3-yl)methanol]",> 80,–
21,–,"Cc1c(Cl)ncnc1N1CCC(CO)(CCCc2ccccc2)CC1 [JDDUVA50, (1-(6-Chloro-5-methylpyrimidin-4-yl)-4-(3-phenylpropyl)piperidin-4-yl)methanol]",> 80,–
16,–,O=C(c1sc2cc(F)ccc2c1Cl)N1CCCC(CO)(CCCc2ccccc2)C1 (stereo not shown) [PLH1254],49,–
